Assay results taken from ChEMBL document CHEMBL1201862, “PubChem BioAssay data set” (2004).
Active and inactive are the calls of the source.

Assays:
Protein Wnt-3a = Protein Wnt-3a (Mus musculus, UniProt P27467); assay: antagonism of Wnt3a pathway luciferase reporter – Wnt-LIGHT cells, luminescence, selectivity assay for Gli-SUFU antagonist project, dose response (AID 651570); type: functional; conditions: read-out: IC50_Mean;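 further: Wnt-LIGHT reporter cells stimulated with conditioned medium from Wnt3a-producing cells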
Chain of Protein Wnt-3a (P27467 whole entry): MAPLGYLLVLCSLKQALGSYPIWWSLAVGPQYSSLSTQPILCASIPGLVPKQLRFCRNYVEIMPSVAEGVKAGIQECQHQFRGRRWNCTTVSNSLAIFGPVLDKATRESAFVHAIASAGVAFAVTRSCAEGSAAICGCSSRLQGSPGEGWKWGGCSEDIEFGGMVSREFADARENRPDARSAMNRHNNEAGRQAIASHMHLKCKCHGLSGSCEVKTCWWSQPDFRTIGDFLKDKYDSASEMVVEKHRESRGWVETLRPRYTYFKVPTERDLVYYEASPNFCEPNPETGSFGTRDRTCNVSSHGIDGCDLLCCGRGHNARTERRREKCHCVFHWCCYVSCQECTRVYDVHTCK

[1] = molecular target: T1, Rac GTPase-activating protein 1 (Homo sapiens, UniProt Q9H0H5); assay: blockers of MgcRacGAP-driven Rac1 GTP hydrolysis – biochemical, ADP Hunter fluorescence, primary and confirmatory, confirmation (AID 624330); type: functional
T1 sequence (Q9H0H5 whole entry): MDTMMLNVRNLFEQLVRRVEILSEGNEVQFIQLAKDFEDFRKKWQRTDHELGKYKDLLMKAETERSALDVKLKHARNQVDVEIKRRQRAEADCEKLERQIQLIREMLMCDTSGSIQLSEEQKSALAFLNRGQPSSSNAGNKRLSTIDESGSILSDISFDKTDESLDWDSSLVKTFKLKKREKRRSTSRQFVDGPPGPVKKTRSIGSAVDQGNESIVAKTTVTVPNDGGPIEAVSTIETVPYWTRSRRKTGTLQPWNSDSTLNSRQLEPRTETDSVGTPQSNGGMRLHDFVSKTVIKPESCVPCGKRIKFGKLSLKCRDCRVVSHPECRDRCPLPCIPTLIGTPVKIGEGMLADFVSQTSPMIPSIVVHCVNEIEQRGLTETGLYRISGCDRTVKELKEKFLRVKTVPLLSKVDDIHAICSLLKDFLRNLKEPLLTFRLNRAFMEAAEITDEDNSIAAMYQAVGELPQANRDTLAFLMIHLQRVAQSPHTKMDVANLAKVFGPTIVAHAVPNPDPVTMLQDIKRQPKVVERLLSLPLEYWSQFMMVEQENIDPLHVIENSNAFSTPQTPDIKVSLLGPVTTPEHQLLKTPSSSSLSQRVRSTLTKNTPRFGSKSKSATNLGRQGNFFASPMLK

[2] = Luminescence Cell-Based Dose Confirmation HTS to Identify Activators of 5'UTR Stem-Loop Driven Alpha-Synuclein mRNA Translation in H4 Neuroglioblastoma Cells. [Related pubchem assays: 1829 (Project Summary), 1814 (Primary HTS)]; type: functional
[3] = Luminescence Cell-Based Dose Response HTS to Identify Activators of Luciferase Translation or Activity in H4 […] Cells. [Related pubchem assays: 1829 (Project Summary), 1814 (Primary HTS)]; type: functional
H4 = assay: Luminescence Cell-Based Dose Response HTS to Identify Activators of 5'UTR Stem-Loop Driven Prion Protein mRNA Translation in H4 Neuroglioblastoma Cells. [Related pubchem assays: 1829 (Project Summary), 1814 (Primary HTS)]; type: functional; conditions: Homo sapiens
[4] = molecular target: T2, Low molecular weight phosphotyrosine protein phosphatase (Homo sapiens, UniProt P24666); type: functional; conditions: read-out: IC50_Mean
T2 sequence (P24666 whole entry): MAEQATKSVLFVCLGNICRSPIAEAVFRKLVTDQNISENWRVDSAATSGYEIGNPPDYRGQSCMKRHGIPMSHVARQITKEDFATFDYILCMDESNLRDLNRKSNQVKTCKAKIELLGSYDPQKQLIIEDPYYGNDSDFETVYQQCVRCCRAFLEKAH

[5] = molecular target: T2, Low molecular weight phosphotyrosine protein phosphatase; type: functional; conditions: read-out: IC50_Mean; remark: listed apart in the source
[6] = molecular target: T3, DNA repair and recombination protein RAD54-like (Homo sapiens, UniProt Q92698); assay: RAD54 Holliday junction migration blockers – biochemical, fluorescence, cherry-picked samples, dose series, confirmation (AID 651657); type: functional
T3 sequence (Q92698 whole entry): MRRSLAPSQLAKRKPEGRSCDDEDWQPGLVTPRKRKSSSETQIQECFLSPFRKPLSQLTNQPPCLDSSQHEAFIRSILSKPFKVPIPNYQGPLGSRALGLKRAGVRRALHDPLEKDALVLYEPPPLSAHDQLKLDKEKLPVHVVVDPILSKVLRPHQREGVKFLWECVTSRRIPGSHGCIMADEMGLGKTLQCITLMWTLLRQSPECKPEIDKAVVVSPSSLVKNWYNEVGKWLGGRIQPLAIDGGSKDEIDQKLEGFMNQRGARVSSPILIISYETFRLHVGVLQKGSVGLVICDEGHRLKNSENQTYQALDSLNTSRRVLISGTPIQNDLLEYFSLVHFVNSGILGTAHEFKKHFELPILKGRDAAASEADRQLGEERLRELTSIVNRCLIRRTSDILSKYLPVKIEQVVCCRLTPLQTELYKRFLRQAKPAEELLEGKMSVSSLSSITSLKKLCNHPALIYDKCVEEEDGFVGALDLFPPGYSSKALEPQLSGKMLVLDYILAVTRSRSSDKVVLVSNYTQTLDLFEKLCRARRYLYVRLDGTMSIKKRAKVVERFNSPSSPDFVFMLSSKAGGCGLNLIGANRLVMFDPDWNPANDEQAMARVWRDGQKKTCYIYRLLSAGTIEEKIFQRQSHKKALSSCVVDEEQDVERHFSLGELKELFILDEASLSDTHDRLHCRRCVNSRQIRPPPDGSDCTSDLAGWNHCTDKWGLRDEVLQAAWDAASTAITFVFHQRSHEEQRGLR

[7] = inhibition of ARNT PAS-B/TACC3 complex formation – biochemical, AlphaScreen, cherry-picked samples, confirmation (AID 651703); type: functional, Homo sapiens;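 further: His-tagged ARNT PAS-B domain paired with GST-TACC3 E629A dimer coactivator fragment; potency of inhibitors that break up the complex and lower AlphaScreen signal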
[8] = molecular target: Induced myeloid leukemia cell differentiation protein Mcl-1 (Homo sapiens, UniProt Q07820); type: functional
Chain of Induced myeloid leukemia cell differentiation protein Mcl-1 (Q07820 whole entry, the tested form may be a part): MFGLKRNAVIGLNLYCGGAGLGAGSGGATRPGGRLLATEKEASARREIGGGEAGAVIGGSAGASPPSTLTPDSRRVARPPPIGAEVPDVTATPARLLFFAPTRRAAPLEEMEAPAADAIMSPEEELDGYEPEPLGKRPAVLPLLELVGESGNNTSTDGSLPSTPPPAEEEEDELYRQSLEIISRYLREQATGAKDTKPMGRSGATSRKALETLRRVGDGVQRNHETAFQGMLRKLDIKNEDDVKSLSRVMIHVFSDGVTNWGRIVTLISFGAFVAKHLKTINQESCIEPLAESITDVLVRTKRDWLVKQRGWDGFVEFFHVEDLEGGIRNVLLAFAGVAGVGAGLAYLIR

[9] = molecular target: Hepatocyte nuclear factor 4-alpha (Homo sapiens, UniProt P41235); type: functional, cell-based;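 further: biochemical luminescence-based dose-response counterscreen measuring inhibition of HNF4 dimerization, run alongside a screen for blockers of ABHD5–perilipin-5 interaction; split luciferase complementation of HNF4 fusion proteins in cell lysate measuring dimerization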
Chain of Hepatocyte nuclear factor 4-alpha (P41235 whole entry, the tested form may be a part): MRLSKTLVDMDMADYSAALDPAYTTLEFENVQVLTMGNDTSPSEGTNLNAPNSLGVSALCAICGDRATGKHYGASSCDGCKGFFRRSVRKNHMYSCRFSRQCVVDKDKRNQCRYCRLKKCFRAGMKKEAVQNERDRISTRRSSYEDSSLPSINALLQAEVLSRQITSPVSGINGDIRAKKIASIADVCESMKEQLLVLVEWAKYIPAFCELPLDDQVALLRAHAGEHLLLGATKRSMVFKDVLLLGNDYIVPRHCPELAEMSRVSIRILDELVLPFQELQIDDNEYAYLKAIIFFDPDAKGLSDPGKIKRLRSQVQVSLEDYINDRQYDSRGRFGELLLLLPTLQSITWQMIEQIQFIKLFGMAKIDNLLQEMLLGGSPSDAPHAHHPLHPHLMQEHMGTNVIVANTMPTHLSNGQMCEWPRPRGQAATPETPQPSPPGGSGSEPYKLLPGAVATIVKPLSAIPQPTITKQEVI

[10] = molecular target: Adenosylmethionine-8-amino-7-oxononanoate aminotransferase (Mycobacterium tuberculosis, UniProt P9WQ81); assay: Mycobacterium tuberculosis BioA enzyme inhibitor Measured in Biochemical System Using Plate Reader - 2163-02_Inhibitor_Dose_CherryPick_Activity.; type: functional, Mycobacterium tuberculosis UT205
Chain of Adenosylmethionine-8-amino-7-oxononanoate aminotransferase (P9WQ81 whole entry): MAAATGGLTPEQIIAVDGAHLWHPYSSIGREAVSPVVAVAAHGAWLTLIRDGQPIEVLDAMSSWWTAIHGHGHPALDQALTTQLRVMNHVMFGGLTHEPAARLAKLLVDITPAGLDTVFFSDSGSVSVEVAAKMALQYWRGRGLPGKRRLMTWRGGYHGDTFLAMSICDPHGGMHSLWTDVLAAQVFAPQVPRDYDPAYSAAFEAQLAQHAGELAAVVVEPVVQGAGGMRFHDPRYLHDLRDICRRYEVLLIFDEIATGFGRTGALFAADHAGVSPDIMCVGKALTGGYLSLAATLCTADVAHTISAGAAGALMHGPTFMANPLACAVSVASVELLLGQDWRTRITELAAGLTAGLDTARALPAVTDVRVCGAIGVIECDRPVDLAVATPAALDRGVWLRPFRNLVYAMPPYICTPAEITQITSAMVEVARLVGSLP

[11] = molecular target: T4, Sentrin-specific protease 8 (Homo sapiens, UniProt Q96LD8); assay: inhibition of human SENP8 cleavage activity – biochemical, luminescence, SAR follow-up (AID 504501); type: functional
T4 sequence (Q96LD8 whole entry): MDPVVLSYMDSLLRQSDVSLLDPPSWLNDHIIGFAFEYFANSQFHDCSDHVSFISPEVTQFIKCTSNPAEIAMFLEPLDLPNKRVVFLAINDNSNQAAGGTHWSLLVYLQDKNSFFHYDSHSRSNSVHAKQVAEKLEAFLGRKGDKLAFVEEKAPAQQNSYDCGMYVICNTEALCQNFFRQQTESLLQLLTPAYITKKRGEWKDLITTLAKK

Caspase-3 = molecular target: T5, Caspase-3 (Homo sapiens, UniProt P42574); assay: SAR Analysis of small molecule inhibitors of Sentrin-specific proteases (SENPs) using a Caspase-3 Selectivity assay. [Related pubchem assays (depositor defined):AID2540, AID2599, AID434973, AID489001]; type: functional
T5 sequence (P42574 whole entry): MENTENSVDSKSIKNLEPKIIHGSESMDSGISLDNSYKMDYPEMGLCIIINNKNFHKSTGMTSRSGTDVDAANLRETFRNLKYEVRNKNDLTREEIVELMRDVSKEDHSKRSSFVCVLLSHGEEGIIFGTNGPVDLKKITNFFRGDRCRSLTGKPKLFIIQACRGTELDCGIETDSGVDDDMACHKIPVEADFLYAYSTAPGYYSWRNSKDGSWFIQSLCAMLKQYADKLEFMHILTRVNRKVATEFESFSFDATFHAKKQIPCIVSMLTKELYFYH

[12] = molecular target: T6, Sentrin-specific protease 6 (Homo sapiens, UniProt Q9GZR1); assay: SAR Analysis of small molecule inhibitors of Sentrin-specific protease 6 (SENP6) using a Luminescent assay. [Related pubchem assays (depositor defined):AID2582, AID2599]; type: functional
T6 sequence (Q9GZR1 whole entry): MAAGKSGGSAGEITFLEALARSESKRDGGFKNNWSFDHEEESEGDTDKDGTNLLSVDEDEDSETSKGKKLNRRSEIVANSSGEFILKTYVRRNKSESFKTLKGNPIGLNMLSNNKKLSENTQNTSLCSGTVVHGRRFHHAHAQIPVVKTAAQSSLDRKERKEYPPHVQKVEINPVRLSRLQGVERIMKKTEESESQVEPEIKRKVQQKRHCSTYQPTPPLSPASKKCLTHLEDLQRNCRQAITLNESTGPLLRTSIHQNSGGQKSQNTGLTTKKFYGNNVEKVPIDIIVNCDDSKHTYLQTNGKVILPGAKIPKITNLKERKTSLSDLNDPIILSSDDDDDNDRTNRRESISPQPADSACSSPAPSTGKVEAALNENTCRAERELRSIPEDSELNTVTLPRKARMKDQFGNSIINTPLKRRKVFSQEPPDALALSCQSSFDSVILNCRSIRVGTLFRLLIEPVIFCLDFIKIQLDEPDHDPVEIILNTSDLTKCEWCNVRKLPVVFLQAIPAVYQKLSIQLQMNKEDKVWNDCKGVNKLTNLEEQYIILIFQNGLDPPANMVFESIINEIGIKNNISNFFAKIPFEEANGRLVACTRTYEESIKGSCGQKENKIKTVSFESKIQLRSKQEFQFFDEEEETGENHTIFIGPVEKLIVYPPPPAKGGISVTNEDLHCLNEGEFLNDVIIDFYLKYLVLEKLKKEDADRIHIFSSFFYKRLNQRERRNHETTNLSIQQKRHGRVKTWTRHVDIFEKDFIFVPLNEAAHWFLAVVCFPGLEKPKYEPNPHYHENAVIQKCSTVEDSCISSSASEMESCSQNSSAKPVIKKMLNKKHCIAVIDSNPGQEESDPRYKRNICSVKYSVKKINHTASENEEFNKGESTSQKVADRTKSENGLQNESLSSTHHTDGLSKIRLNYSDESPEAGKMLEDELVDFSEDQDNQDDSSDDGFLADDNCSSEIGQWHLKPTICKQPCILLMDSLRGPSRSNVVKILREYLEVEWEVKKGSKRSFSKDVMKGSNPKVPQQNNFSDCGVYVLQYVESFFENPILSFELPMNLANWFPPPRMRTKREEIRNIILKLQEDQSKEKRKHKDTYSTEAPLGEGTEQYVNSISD

[13] = molecular target: T7, Sentrin-specific protease 7 (Homo sapiens, UniProt Q9BQF6); assay: inhibition of human SENP7 cleavage activity – biochemical, luminescence, SAR follow-up (AID 504497); type: functional
T7 sequence (Q9BQF6 whole entry): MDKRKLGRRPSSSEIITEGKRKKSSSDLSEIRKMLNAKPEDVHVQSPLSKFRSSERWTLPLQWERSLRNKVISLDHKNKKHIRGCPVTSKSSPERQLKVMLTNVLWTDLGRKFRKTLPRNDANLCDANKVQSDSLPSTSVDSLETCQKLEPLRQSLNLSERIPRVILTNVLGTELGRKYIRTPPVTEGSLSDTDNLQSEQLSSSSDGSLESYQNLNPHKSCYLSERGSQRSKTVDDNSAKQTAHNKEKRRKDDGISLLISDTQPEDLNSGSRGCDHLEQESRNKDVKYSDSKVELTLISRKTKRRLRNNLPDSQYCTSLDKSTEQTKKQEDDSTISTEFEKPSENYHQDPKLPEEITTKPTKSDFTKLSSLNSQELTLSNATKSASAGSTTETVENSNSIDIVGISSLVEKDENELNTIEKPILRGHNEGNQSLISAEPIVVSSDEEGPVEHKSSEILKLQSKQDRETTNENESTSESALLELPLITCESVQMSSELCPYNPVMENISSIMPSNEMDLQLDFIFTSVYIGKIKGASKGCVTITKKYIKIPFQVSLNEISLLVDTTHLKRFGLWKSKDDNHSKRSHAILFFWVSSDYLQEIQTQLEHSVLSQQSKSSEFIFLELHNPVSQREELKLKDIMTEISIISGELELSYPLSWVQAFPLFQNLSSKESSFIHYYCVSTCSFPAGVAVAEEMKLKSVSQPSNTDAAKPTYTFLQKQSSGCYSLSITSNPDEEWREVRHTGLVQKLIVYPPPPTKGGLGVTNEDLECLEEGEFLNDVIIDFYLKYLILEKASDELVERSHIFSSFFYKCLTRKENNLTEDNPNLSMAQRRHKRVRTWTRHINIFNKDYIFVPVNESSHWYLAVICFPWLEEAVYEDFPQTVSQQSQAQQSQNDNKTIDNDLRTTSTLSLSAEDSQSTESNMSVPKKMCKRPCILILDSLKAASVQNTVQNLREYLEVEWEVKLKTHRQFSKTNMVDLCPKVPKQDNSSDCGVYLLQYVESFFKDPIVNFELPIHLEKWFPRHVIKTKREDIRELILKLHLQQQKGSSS

[14] = molecular target: Mitochondrial peptide methionine sulfoxide reductase (Bos taurus, UniProt P54149); assay: Absorbance-based biochemical high throughput dose response assay for activators of Methionine sulfoxide reductase A (MsrA).; type: functional
Chain of Mitochondrial peptide methionine sulfoxide reductase (P54149 whole entry): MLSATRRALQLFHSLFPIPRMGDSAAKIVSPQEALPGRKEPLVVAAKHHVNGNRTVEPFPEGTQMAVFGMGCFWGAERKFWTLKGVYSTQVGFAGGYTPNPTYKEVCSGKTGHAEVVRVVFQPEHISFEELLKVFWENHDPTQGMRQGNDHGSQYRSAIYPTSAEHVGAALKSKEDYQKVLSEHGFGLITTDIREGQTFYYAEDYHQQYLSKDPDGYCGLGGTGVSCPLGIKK

Cc1nc2ncccn2c1-c1csc(Nc2ccc(O)cc2)n1
IC50 (Protein Wnt-3a): 48.9 µM (inactive)
IC50 [1]: 14.3 µM (active)

CC(=O)c1c(C)[nH]c(C(=O)OCC(=O)Nc2cccc(S(=O)(=O)N3CCCC3)c2)c1C
IC50 (Protein Wnt-3a): 5.02 µM (active)

Cc1ccc(-c2nc(NCCN3CCOCC3)c3ccccc3n2)cc1
EC50 [2]: 56.3 µM (active)
EC50 [3]: 21.1 µM (active)
EC50 (H4): 16.9 µM (active)
IC50 [4]: 30.7 µM (inactive)
IC50 [5]: 16 µM (active)
AC50 [6]: 24.8 µM (active)

CC(=O)N1CN(Cc2ccccn2)Cc2c1sc1c2CCCC1
AC50 [7]: 87.9 µM (active)

CS(=O)(=O)c1ccc(C(=O)NCCN2C(=O)S/C(=C\c3cccnc3)C2=O)cc1[N+](=O)[O-]
IC50 [8]: 2.17 µM (active)
IC50 [9]: 5.89 µM (active)

COc1cccc(NC(=O)CCC2CCN(C(=O)c3ccc(C(C)=O)s3)CC2)c1
AC50 [10]: 0.508 µM (active)

Cc1cc(C(F)F)nn1CC(=O)Nc1sc2c(c1C#N)CCC2
IC50 [11]: > 99 µM (inactive)
IC50 (Caspase-3): > 99 µM (inactive)
IC50 [12]: > 99 µM (inactive)
IC50 [13]: > 99 µM (inactive)

O=C(NCc1ccccn1)c1c(-c2ccccc2)sc2ccccc12
AC50 [7]: 121 µM (active)

CCCCc1ccc2nc(NC(=O)C3CCCCC3)sc2c1
IC50 [11]: > 99 µM (inactive)
IC50 (Caspase-3): > 99 µM (inactive)
IC50 [12]: > 99 µM (inactive)
IC50 [13]: > 99 µM (inactive)

CC1(C(=O)Nc2ccccc2)CCN1C(=O)Cc1ccc(-c2ccccc2)cc1 (stereo not given)
EC50 [14]: > 104 µM (inactive)

CCCCCNC(=O)C(c1cccc2ccccc12)n1c(=O)c(-c2ccco2)nc2ccccc21 (stereo not given)
IC50 [9]: 2.83 µM (active)

CC(C)(C)c1cc(C(=O)Nc2cccnc2)cc(C(=O)Nc2cccnc2)c1
AC50 [10]: 1.28 µM (active)
